Test results published in ChEMBL document CHEMBL3832761, “MMV Pathogen Box Bioactivity Data” (2017).

How the values were obtained:
HepG2 [1] = assay: HepG2 CC50 (uM) Cytotoxicity; type: functional; conditions: Homo sapiens
Plasmodium falciparum [2] = assay: Antimalarial activity: Asexual Blood Stage Plasmodium falciparum Dd2 IC50 (uM); type: functional, organism-based
Plasmodium berghei [3] = assay: Antimalarial activity: Liver Stage Plasmodium berghei sporozoite Luciferase assay: inhibition at 10 uM (%); type: functional
Plasmodium falciparum [4] = assay: Antimalarial activity: Gametocytes Plasmodium falciparum NF54 Gametocytes Stage V: inhibition at 10 uM (%); type: functional
Plasmodium berghei [5] = assay: Antimalarial activity: Liver Stage Plasmodium berghei sporozoite Luciferase assay IC50 (uM); type: functional, organism-based
Plasmodium falciparum [6] = assay: Antimalarial activity: Asexual Blood Stage Plasmodium falciparum 3D7 IC50 (uM); type: functional, organism-based
Plasmodium falciparum [7] = assay: Antimalarial activity: Asexual Blood Stage Plasmodium falciparum W2 IC50 (uM); type: functional, organism-based
HepG2 [8] = assay: Cytotoxicity data HepG2 CC20 (uM); type: functional
HepG2 [9] = assay: HepG2 inhibition at 10 uM (%) Cytotoxicity; type: functional; conditions: Homo sapiens
[10] = HL60 CC50 (uM) Cytotoxicity; type: functional; conditions: HL-60

SMILES | IC50 (Plasmodium falciparum [2]) [nM] | IC50 (Plasmodium berghei [5]) [nM] | IC50 (Plasmodium falciparum [6]) [nM] | IC50 (Plasmodium falciparum [7]) [nM] | CC50 (HepG2 [1]) [nM] | Inhibition (Plasmodium berghei [3]) [%] | Inhibition (Plasmodium falciparum [4]) [%] | CC20 (HepG2 [8]) [nM] | inhibition at 10 µM (HepG2 [9]) [%] | CC50 [10] [nM]
CN(C)CCNC(=O)N1CCCN(c2ncnc3cc(-c4ccccc4)sc23)CC1 | 2910 | 1970 | 1580 | 3850 | > 10000 | 73 | 5 | 6210 |  | 
Cc1cc(C)n2nc(C(=O)Nc3cc(C(F)(F)F)ccc3N3CCOCC3)nc2n1 | 220 | 1210 | 220 | 70 | > 10000 | 88 | 4 | >80000 |  | 
CC1CC1C(=O)NC1CCN(CC2(c3ccccc3)CCCCC2)CC1 (stereo unspecified) | 920 | 2250 | 580 | 310 | > 10000 | 100 | 24 | >80000 |  | 
CNC(=O)C1Cc2c([nH]c3cc(Cl)ccc23)C2(CCN(CCc3ccccc3)CC2)N1 (stereo unspecified) | 1950 | 4510 | 860 | 4550 | > 10000 | 99 | 33 | 10000 |  | 
O=C(Nc1ccc(N2CCNCC2)nc1)c1oc(-c2ccccc2)nc1C(F)(F)F | 1640 | 2550 | 1220 | 3000 | > 10000 | 78 | 44 | 13400 |  | 
Nc1ncc(-c2cn[nH]c2)cc1-c1nc2cc(Cl)cnc2[nH]1 |  |  | 400 |  |  | 0 | 0 | 2820 | 7 | > 50000
O=C1N(Cc2cc3ccccc3s2)CC2CN(Cc3ccccc3)CCN12 (stereo unspecified) | 1260 | 200 | 1160 | 1330 | > 10000 | 100 | 53 | 26400 |  | 
Cc1ccc(NC(=O)c2cc(S(=O)(=O)NC(C)(C)C)ccc2C)nc1 | 2510 | 7350 | 930 | 1180 | > 7500 | 82 | 2 | >80000 |  | 
Cc1nc(-c2cccc(NCc3ccccc3)c2)[nH]c1C | 5030 | 4590 | 1940 | 2590 | > 10000 | 100 | 16 | 27700 |  | 
FC(F)(F)c1cccc(-c2nc3c(NCc4ccncc4)nccc3[nH]2)c1 | 780 | > 10000 | 510 | 1040 | > 10000 | 62 | 11 | 14600 |  | 
COc1cncc(-c2cncc(N3CCN(c4ccncc4)CC3)n2)c1 | 150 | > 7500 | 100 | 180 | > 10000 | 64 | 12 | 4650 |  | 
CCC(NC(=O)c1ccccc1NC(=O)c1ccc(C)cc1)C(=O)OC (stereo unspecified) |  |  | 160 |  |  | 0 | 29 |  | 5 | > 50000
O=C(Nc1cccc(Cl)c1)c1cnc(N2CCN(c3ccncc3)CC2)c(Cl)c1 | 1330 | 2350 | 830 | 1550 | > 10000 | 99 | 51 | 2680 |  | 
OCCc1ccc(Nc2nccc(-c3nnc4ccccn34)n2)cc1 | 1630 | 1470 | 1080 | 690 | 8100 | 99 | 11 | 1670 |  | 
Cc1cccc(C(=O)Nc2ccnc(N(C)C3CCN(CC(C)C)CC3)c2)c1 | 5180 | > 10000 | 2100 | 9250 | > 10000 | 66 | 10 | 13700 |  | 

Now from value to molecule, other results behind:

IC50 (Plasmodium falciparum [2]) [nM] | IC50 (Plasmodium berghei [5]) [nM] | IC50 (Plasmodium falciparum [6]) [nM] | IC50 (Plasmodium falciparum [7]) [nM] | SMILES | CC50 (HepG2 [1]) [nM] | Inhibition (Plasmodium berghei [3]) [%] | Inhibition (Plasmodium falciparum [4]) [%] | CC20 (HepG2 [8]) [nM] | inhibition at 10 µM (HepG2 [9]) [%] | CC50 [10] [nM]
1530 | > 10000 | 1630 | 1360 | Clc1cccc(C(c2ccc(CN3CCNCC3)cc2)n2ccnc2)c1 (stereo unspecified) | > 10000 | 83 | 36 | 15200 |  | 
190 | 320 | 410 | 1050 | CC(C)(CN)c1nc(-c2ccc(Cl)c(O)c2)c(-c2ccnc(N)n2)[nH]1 | > 10000 | 100 | 9 | 5770 |  | 
> 2000 |  | 1060 |  | COc1cccc2c(C)nc(N=C(N)N)nc12 |  | 42 | 0 | 8380 | 20 | > 50000
1470 | > 6000 | 630 | 1300 | Cc1ccc(S(=O)(=O)n2cc(-c3ccnc(N)c3)c3cc(Br)cnc32)cc1 | > 6000 | 99 | 17 | 5280 |  | 
1410 | > 10000 | 820 | 540 | Cc1cc(C(=O)Nc2ccc(-c3ccccc3)cc2)no1 | > 10000 | 97 | 24 | >80000 |  | 
1730 | 630 | 1040 | 400 | Cc1ccc(S(=O)(=O)N2CCN(C(=O)c3cc(-c4ccccc4)n[nH]3)CC2)cc1 | > 10000 | 92 | 17 | >80000 |  | 
1500 | 170 | 710 | 680 | Cc1nnc(NC(=O)c2cn(-c3ccccc3)nc2-c2ccccc2C)o1 | > 10000 | 100 | 16 | 920 |  | 
890 | 3780 | 640 | 540 | NCC(=O)N1CCn2c(nc(-c3ccccc3)c2Nc2ccc3c(c2)OCO3)C1 | > 10000 | 100 | 56 | >80000 |  | 
3100 | 9150 | 960 | 1140 | CC(C)C(NC(=O)Cc1cccc2ccccc12)C(=O)Nc1cccc(C#N)c1 (stereo unspecified) | > 10000 | 76 | 5 | 14000 |  | 
2020 | 8570 | 810 | 2860 | Cc1c[nH]c(CCNC(=O)c2cc(-c3ccc(Cl)cc3)cs2)n1 | > 10000 | 85 | 15 | 6900 |  | 
780 | 6540 | 710 | 2060 | O=C(NC1CCN(c2ccnc3ccccc23)C1)c1cccc(C(F)(F)F)c1 (stereo unspecified) | > 10000 | 99 | 1 | 5820 |  | 
> 2000 | 6770 | 1580 | 1070 | Cc1cccc(NC(=O)c2cc(S(=O)(=O)N(C)c3ccc(F)cc3)ccc2Cl)n1 | > 10000 | 86 | 3 | 26400 |  | 
1670 | 1410 | 1330 | 820 | O=C(NC1CC1)c1ccc(N2CCC(Cc3ccccc3)CC2)nc1 | > 10000 | 100 | 28 | >80000 |  | 
630 | 2170 | 600 | 730 | NS(=O)(=O)c1cncc(-c2ccc3nccc(-c4cn[nH]c4)c3n2)c1 |  | 96 | 70 | 490 |  | 
410 | > 10000 | 510 | 620 | O=C1Nc2ccc(Br)cc2C12NCCc1c2[nH]c2ccccc12 (stereo unspecified) | > 10000 | 57 | 38 | 19900 |  | 
610 | > 10000 | 420 | 790 | CCOc1ccccc1NC(C)C(=O)Nc1cc(C(F)(F)F)ccc1N1CCOCC1 (stereo unspecified) | > 10000 | 56 | 39 | 29800 |  | 
1710 | > 10000 | 1130 | 2110 | CN1CCN(c2nccc3nc(-c4ccc(F)c(F)c4)[nH]c23)CC1 | > 10000 | 56 | 32 | 10300 |  | 
600 | 9100 | 480 | 640 | Cc1ccc(Oc2ccc(NC(=O)CNc3ccccc3N3CCCC3=O)cc2)cc1 | 9800 | 89 | 0 | 17500 |  | 
1800 | > 10000 | 660 | 1970 | CCOc1ccc(-c2nc(NC(=O)CS(=O)(=O)c3ccccc3)sc2C)cc1 | > 10000 | 59 | 17 | 20000 |  | 
2490 | > 10000 | 1280 | 2530 | COc1cccc(-c2cc3c(Nc4cccnc4)nccc3[nH]2)c1 | > 10000 | 77 | 6 | 2290 |  | 
740 | > 10000 | 230 | 420 | Nc1nccc2ccc(Oc3ccncc3)cc12 | > 10000 | 52 | 43 | >80000 |  | 
